Laboratory results published in US11471436B2, “Dihydronaphthalene derivative” (ONO PHARMACEUTICAL CO., LTD., priority 2014, dated 2022).

Tests used:
human S1P1 (EDG-1) [1] = biological target: T1, human S1P1 (EDG-1) (Homo sapiens, UniProt P21453); assay: Inhibition of binding of [33P]-S1P to S1P1, CHO membrane fractions; settings: [33P]-S1P binding, membrane fractions of CHO cells overexpressing human S1P1
Description: (§1) Measurement of the Inhibitory Action of the Compound of the Present Invention on Binding of [^33P]-S1P to S1P5 (EDG-8)
(§2) A reaction was carried out in a 96-well microplate by using membrane fractions of Chinese hamster ovary (CHO) cells each of which was made to overexpress human S1P1 (EDG-1) or human S1P5 gene respectively, in an amount of the membrane fraction of 1 mg protein/mL. To each of the wells, 100 μL of a vehicle (DMSO) solution or a ligand solution at a two-fold concentration diluted with Binding Buffer (50 mmol/L, Tris pH 7.5, 5 mmol/L, MgCl2, 0.5% BSA and Complete EDTA free (1 tablet/50 mL)) and […] of 0.16 nmol/L [^33P]-S1P (manufactured by American Radiolabeled Chemicals, Inc.) diluted with Binding Buffer were added, and thereafter, each of membrane fraction solutions (50 μL) was added and the reaction was carried out at room temperature for 60 minutes. After the reaction, suction filtration was carried out by using a 96-well UNIFILTER, and the 96-well microplate was washed with Wash Buffer (50 mmol/L, Tris pH 7.5, 0.5% BSA) (150 mL), and thereafter, was dried at 60° C. for 45 minutes. MicroScint (trade name) 20 (50 μL/well) was added and the plate was covered with TopSeal-A, and thereafter, the radioactivity was measured by using TopCount (manufactured by PerkinElmer Inc.).

human S1P5 (EDG-8) [2] = biological target: T2, human S1P5 (EDG-8) (Homo sapiens, UniProt Q9H228); assay: Inhibition of binding of [33P]-S1P to S1P5, CHO membrane fractions; settings: for IC50: [33P]-S1P binding, membrane fractions of CHO cells overexpressing human S1P5
T2 sequence (Q9H228 whole entry): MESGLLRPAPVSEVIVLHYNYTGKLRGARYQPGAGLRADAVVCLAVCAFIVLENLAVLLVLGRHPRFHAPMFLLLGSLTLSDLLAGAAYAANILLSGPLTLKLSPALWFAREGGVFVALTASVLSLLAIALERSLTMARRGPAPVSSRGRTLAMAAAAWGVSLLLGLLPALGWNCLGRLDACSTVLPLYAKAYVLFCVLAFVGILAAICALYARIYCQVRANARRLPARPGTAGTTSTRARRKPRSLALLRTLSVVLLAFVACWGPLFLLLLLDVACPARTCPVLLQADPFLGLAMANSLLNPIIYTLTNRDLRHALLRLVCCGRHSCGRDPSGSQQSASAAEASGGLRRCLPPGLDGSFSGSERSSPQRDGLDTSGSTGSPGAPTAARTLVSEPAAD
Description: as §1, §2

human S1P1 (EDG-1) [3] = biological target: T1, human S1P1 (EDG-1); assay: S1P receptor agonist activity by monitoring intracellular cyclic AMP, CHO cells overexpressing S1P1; assay type: cell-based; settings: forskolin-stimulated CHO cells overexpressing human S1P1, read-out: EC 50 value with regard to S1P1 receptor
Description: (§3) Evaluation of S1P Receptor Agonist Activities of the Compound of the Present Invention by Monitoring the Concentration of Produced Intracellular Cyclic AMP
(§4) CHO cells which were made to overexpress either human S1P1 (EDG-1) or human S1P5 (EDG-8) gene respectively were cultured in Ham's F12 Medium (manufactured by Gibco-BRL) containing 10% FBS (fetal bovine serum), penicillin/streptomycin and geneticin (0.25 mg/mL). The medium was removed from the cultured cells, the cultured cells were washed once with phosphate-buffered saline, and the cultured cells were treated with a vehicle (DMSO) solution or a compound solution each of which was diluted with Buffer (Hanks' balanced salt solution containing 20 mmol/L HEPES, 0.1 or 0.2% BSA, 1 mmol/L IBMX and 50 μmol/L forskolin) at 37° C. for 30 minutes. Thereafter, the cultured cells were washed once with phosphate-buffered saline. After lysing the cells, the concentration of cyclic AMP in the cell lysate were measured by using cAMP Assay Kit (GE Healthcare).

human S1P5 (EDG-8) [4] = biological target: T2, human S1P5 (EDG-8); assay: S1P receptor agonist activity by monitoring intracellular cyclic AMP, CHO cells overexpressing S1P5; assay type: cell-based; settings: forskolin-stimulated CHO cells overexpressing human S1P5, read-out: EC 50 value with regard to S1P5 receptor
Description: as §3, §4

T1 sequence (P21453 whole entry): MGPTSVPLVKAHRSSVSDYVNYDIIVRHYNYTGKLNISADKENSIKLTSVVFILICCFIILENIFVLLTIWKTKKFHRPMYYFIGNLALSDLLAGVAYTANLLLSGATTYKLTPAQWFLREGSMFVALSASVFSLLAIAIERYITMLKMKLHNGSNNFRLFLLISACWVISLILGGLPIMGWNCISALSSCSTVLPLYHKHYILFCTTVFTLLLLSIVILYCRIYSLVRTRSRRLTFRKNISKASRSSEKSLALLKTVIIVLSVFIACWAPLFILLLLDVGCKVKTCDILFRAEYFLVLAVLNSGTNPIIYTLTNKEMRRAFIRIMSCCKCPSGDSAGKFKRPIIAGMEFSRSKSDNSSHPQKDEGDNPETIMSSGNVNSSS

SMILES	IC50 (human S1P1 (EDG-1) [1])	IC50 (human S1P5 (EDG-8) [2])	balance of an S1P5 receptor agonist activity against an S1P1 receptor agonist activity (human S1P5 (EDG-8) [2]; conclusion in words from binding IC50 values S1P1 vs S1P5)	EC50 (human S1P1 (EDG-1) [3])	EC50 (human S1P5 (EDG-8) [4])
O=C(O)C1CN(CC2=Cc3ccc(OC4CCCCC4)cc3CC2)C1 [Example 9 (2), 1-{[6-(Cyclohexyloxy)-3,4-dihydro-2-naphthalenyl]methyl}-3-azetidinecarboxylic acid]	> 10000 nM	57.2 nM	–	–	–
CCCCc1ccc(Oc2ccc3c(c2)CCC(CN2CC(C(=O)O)C2)=C3C)cc1.Cl [Comparative Compound A, 1-{[6-(4-butylphenoxy)-1-methyl-3,4-dihydronaphthalen-2-yl]methyl}azetidine-3-carboxylic acid hydrochloride, reference compound]	475 nM	76 nM	had both S1P1 and S1P5 receptor agonist activities	–	–
CC1Cc2cc(OC3CCCCC3)ccc2C=C1CN1CC(C(=O)O)C1 (stereo not shown) [Example 21, 1-{[6-(Cyclohexyloxy)-3-methyl-3,4-dihydro-2-naphthalenyl]methyl}-3-azetidinecarboxylic acid]	> 10000 nM	16 nM	–	9.99 µM	0.2 nM
CC1=C(CN2CC(C(=O)O)C2)CCc2cc(-c3ccccc3)ccc21 [Example 14 (1), 1-[(1-Methyl-6-phenyl-3,4-dihydro-2-naphthalenyl)methyl]-3-azetidinecarboxylic acid]	> 10000 nM	22.4 nM	–	–	–
CC1=C(CN2CC(C(=O)O)C2)CCc2cc(-c3ccccn3)ccc21 [Example 14 (3), 1-{[1-Methyl-6-(2-pyridinyl)-3,4-dihydro-2-naphthalenyl]methyl}-3-azetidinecarboxylic acid]	> 10000 nM	67.2 nM	–	–	–
